Data reported in patent US20020137929A1, “1 - (3-heterocyclylphenyl) isothiourea, -isourea, -guanidine and -amidine herbicidal agents” (Intellectual Property Department, BASF Aktiengesellschaft, priority 1998, published 2002).

Key:
SETVI (Foxtail, Green) [1] = assay: Postemergence herbicidal evaluation; type: in vivo, Setaria viridis
In short: (§1)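 Rate range approx. 0.0156–0.500 kg/ha. Foliar application at 40 psi to ~2-week seedlings; surfactant 0.5% TWEEN 20 in 50/50 acetone/water. Evaluation 4–5 wk post-treatment by 0–9 visual injury score, means of replicate tests.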

SETVI (Foxtail, Green) [2] = assay: Preemergence herbicidal evaluation; type: in vivo, Setaria viridis; conditions: rated 4-5 weeks after treatment
In short: (§2)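 Herbicidal effect scored visually, 0-9, at 4 to 5 weeks against a control; compound applied preemergence by aqueous acetone spray to seeded soil at about 0.0156 to 0.500 kg/ha.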

[3] = test system: SAGPY (Arrowhead (Pygmaea)); assay: Postemergence weed control under flooded paddy conditions; type: in vivo, Sagittaria pygmaea; conditions: postemergence weeds, 3-4 weeks after treatment
In short: (§3)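 Flood-water application, about 0.0313–0.500 kg/ha a.i. in aqueous/acetone 50/50 v/v; water depth 1.5–3 cm throughout. Weeds 3–5 cm, rice 1.5–2.5 leaf. Greenhouse; 0–9 visual rating vs control at 3–4 wk.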

CYPIR (Rice Flatsedge) = assay: Preemergence weed control under flooded paddy conditions; type: in vivo, Cyperus iria; conditions: rated 3-4 weeks after treatment
In short: (§4)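 Visual injury scored 0-9 against control three to four weeks post-treatment, greenhouse-grown. Application: acetone/water (50/50) solutions dosed directly into flood water (1.5-3 cm over silt loam, planted top 0.5 cm), roughly 0.0313 to 0.500 kg/ha active ingredient.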

[4] = test system: TRZAWR (Wheat, Winter, cv Riband); assay: Postemergence herbicidal evaluation; type: in vivo, Triticum aestivum
In short: as §1

GALAP (Galium) = assay: Postemergence herbicidal evaluation; type: in vivo, Galium aparine
In short: as §1

[5] = test system: ECHORC (Watergrass (Calif.)); assay: Preemergence weed control under flooded paddy conditions; type: in vivo, Echinochloa oryzoides; conditions: rated 3-4 weeks after treatment
In short: as §4

ZEAMX (Corn, Field) = assay: Preemergence herbicidal evaluation; type: in vivo, Zea mays; conditions: rated 4-5 weeks after treatment
In short: as §2

ABUTH (Velvetleaf) = assay: Preemergence herbicidal evaluation; type: in vivo, Abutilon theophrasti; conditions: rated 4-5 weeks after treatment
In short: as §2

[6] = test system: IPOHE (Morningglory, Ivyleaf); assay: Preemergence herbicidal evaluation; type: in vivo, Ipomoea hederacea; conditions: rated 4-5 weeks after treatment
In short: as §2

[7] = test system: ECHORC (Watergrass (Calif.)); assay: Postemergence weed control under flooded paddy conditions; type: in vivo, Echinochloa oryzoides; conditions: postemergence weeds, 3-4 weeks after treatment
In short: as §3

ECHCG (Barnyardgrass) = assay: Preemergence herbicidal evaluation; type: in vivo, Echinochloa crus-galli; conditions: rated 4-5 weeks after treatment
In short: as §2

[8] = test system: IPOHE (Morningglory, Ivyleaf); assay: Postemergence herbicidal evaluation; type: in vivo, Ipomoea hederacea
In short: as §1

MOOVA (Monochoria) = assay: Preemergence weed control under flooded paddy conditions; type: in vivo, Monochoria vaginalis; conditions: rated 3-4 weeks after treatment
In short: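 Values are visual 0-9 scores against a control for a preemergence application into paddy flood water at about 0.0313 to 0.500 kg/ha. Greenhouse duration was three to four weeks.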

CCOC(=O)CN1C(=O)CSC1=Nc1cc(N2C(=O)C3=C(CCCC3)C2=O)c(F)cc1Cl [Compound 47, Ethyl 2-{[2-chloro-5-(1-cyclohexene-1,2-dicarboximido)-4-fluorophenyl]imino}-4-oxo-3-thiazolidineacetate]
Postemergence herbicidal rating SETVI (SETVI (Foxtail, Green) [1]; Rate 0.0156 kg/ha): 0.0
Postemergence herbicidal rating SETVI (SETVI (Foxtail, Green) [1]; Rate 0.0313 kg/ha): 0.0
Postemergence herbicidal rating SETVI (SETVI (Foxtail, Green) [1]; Rate 0.0625 kg/ha): 0.0
Preemergence herbicidal rating SETVI (SETVI (Foxtail, Green) [2]; rate 0.0156 kg/ha): 0.0
Preemergence herbicidal rating SETVI (SETVI (Foxtail, Green) [2]; rate 0.0313 kg/ha): 0.0
Preemergence herbicidal rating SETVI (SETVI (Foxtail, Green) [2]; rate 0.0625 kg/ha): 0.0
Preemergence herbicidal rating SETVI (SETVI (Foxtail, Green) [2]; rate 0.1250 kg/ha): 0.0
Preemergence herbicidal rating SETVI (SETVI (Foxtail, Green) [2]; rate 0.2500 kg/ha): 4.0
Herbicidal rating SAGPY ([3]; rate 0.0313 kg/ha): 0.0
Herbicidal rating SAGPY ([3]; rate 0.0625 kg/ha): 0.0
Herbicidal rating SAGPY ([3]; rate 0.1250 kg/ha): 4.0
Herbicidal rating SAGPY ([3]; rate 0.2500 kg/ha): 7.0
Herbicidal rating CYPIR (CYPIR (Rice Flatsedge); 0.0313 kg/ha): 0.0
Herbicidal rating CYPIR (CYPIR (Rice Flatsedge); 0.0625 kg/ha): 0.0
Herbicidal rating CYPIR (CYPIR (Rice Flatsedge); 0.1250 kg/ha): 4.0
Herbicidal rating CYPIR (CYPIR (Rice Flatsedge); 0.2500 kg/ha): 6.0
Postemergence herbicidal rating TRZAWR ([4]; Rate 0.0156 kg/ha): 2.5
Postemergence herbicidal rating TRZAWR ([4]; Rate 0.0313 kg/ha): 3.5
Postemergence herbicidal rating TRZAWR ([4]; Rate 0.0625 kg/ha): 4.5
Postemergence herbicidal rating GALAP (GALAP (Galium); Rate 0.0156 kg/ha): 0.0
Postemergence herbicidal rating GALAP (GALAP (Galium); Rate 0.0313 kg/ha): 3.0
Postemergence herbicidal rating GALAP (GALAP (Galium); Rate 0.0625 kg/ha): 3.0
Herbicidal rating ECHORC ([5]; 0.0313 kg/ha): 0.0
Herbicidal rating ECHORC ([5]; 0.0625 kg/ha): 2.0
Herbicidal rating ECHORC ([5]; 0.1250 kg/ha): 4.0
Herbicidal rating ECHORC ([5]; 0.2500 kg/ha): 7.0
Preemergence herbicidal rating ZEAMX (ZEAMX (Corn, Field); rate 0.0156 kg/ha): 0.0
Preemergence herbicidal rating ZEAMX (ZEAMX (Corn, Field); rate 0.0313 kg/ha): 0.0
Preemergence herbicidal rating ZEAMX (ZEAMX (Corn, Field); rate 0.0625 kg/ha): 0.0
Preemergence herbicidal rating ZEAMX (ZEAMX (Corn, Field); rate 0.1250 kg/ha): 0.0
Preemergence herbicidal rating ZEAMX (ZEAMX (Corn, Field); rate 0.2500 kg/ha): 2.0
Preemergence herbicidal rating ABUTH (ABUTH (Velvetleaf); rate 0.0156 kg/ha): 4.0
Preemergence herbicidal rating ABUTH (ABUTH (Velvetleaf); rate 0.0313 kg/ha): 4.0
Preemergence herbicidal rating ABUTH (ABUTH (Velvetleaf); rate 0.0625 kg/ha): 9.0
Preemergence herbicidal rating ABUTH (ABUTH (Velvetleaf); rate 0.1250 kg/ha): 9.0
Preemergence herbicidal rating ABUTH (ABUTH (Velvetleaf); rate 0.2500 kg/ha): 9.0
Preemergence herbicidal rating IPOHE ([6]; rate 0.0156 kg/ha): 0.0
Preemergence herbicidal rating IPOHE ([6]; rate 0.0313 kg/ha): 0.0
Preemergence herbicidal rating IPOHE ([6]; rate 0.0625 kg/ha): 0.0
Preemergence herbicidal rating IPOHE ([6]; rate 0.1250 kg/ha): 0.0
Preemergence herbicidal rating IPOHE ([6]; rate 0.2500 kg/ha): 9.0
Herbicidal rating ECHORC ([7]; rate 0.0313 kg/ha): 0.0
Herbicidal rating ECHORC ([7]; rate 0.0625 kg/ha): 2.0
Herbicidal rating ECHORC ([7]; rate 0.1250 kg/ha): 4.0
Herbicidal rating ECHORC ([7]; rate 0.2500 kg/ha): 7.0
Preemergence herbicidal rating ECHCG (ECHCG (Barnyardgrass); rate 0.0156 kg/ha): 0.0
Preemergence herbicidal rating ECHCG (ECHCG (Barnyardgrass); rate 0.0313 kg/ha): 0.0
Preemergence herbicidal rating ECHCG (ECHCG (Barnyardgrass); rate 0.0625 kg/ha): 0.0
Preemergence herbicidal rating ECHCG (ECHCG (Barnyardgrass); rate 0.1250 kg/ha): 0.0
Preemergence herbicidal rating ECHCG (ECHCG (Barnyardgrass); rate 0.2500 kg/ha): 0.0
Postemergence herbicidal rating IPOHE ([8]; Rate 0.0156 kg/ha): 9.0
Postemergence herbicidal rating IPOHE ([8]; Rate 0.0313 kg/ha): 9.0
Postemergence herbicidal rating IPOHE ([8]; Rate 0.0625 kg/ha): 9.0
Herbicidal rating MOOVA (MOOVA (Monochoria); 0.0313 kg/ha): 5.0
Herbicidal rating MOOVA (MOOVA (Monochoria); 0.0625 kg/ha): 6.0
Herbicidal rating MOOVA (MOOVA (Monochoria); 0.1250 kg/ha): 9.0
Herbicidal rating MOOVA (MOOVA (Monochoria); 0.2500 kg/ha): 9.0
